# What was measured:
# [1] = target: Glutamate receptor ionotropic, NMDA 1 (Rattus norvegicus, UniProt P35439); test: Binding affinity towards N-methyl-D-aspartate glutamate receptor 1 (high affinity) of rat cortical synaptic membranes by using [3H]Gly as radioligand
# [2] = target: Glutamate receptor ionotropic, AMPA (Rattus norvegicus, UniProt P19490+P19491+P19492+P19493)
# Description: Binding affinity towards ionotropic glutamate receptor (high-affinity) of rat cortical synaptic membranes by using [3H]AMPA as radioligand
# [3] = target: Glutamate receptor ionotropic, NMDA 1 (Rattus norvegicus) (UniProt P35439); test: Percent inhibition of compound at 100 uM towards N-methyl-D-aspartate glutamate receptor 1 (high affinity) of rat cortical synaptic membranes by using [3H]-Gly as radioligand; format: cell membranes; details: Membrane
# [4] = target: Glutamate receptor ionotropic, kainate; test: Inhibition concentration towards high-affinity ionotropic glutamate receptor kainate of rat cortical membranes by using [3H]KA as radioligand
# [5] = target: Glutamate receptor ionotropic, kainate; test: Inhibition concentration towards low-affinity Ionotropic glutamate receptor kainate of rat cortical membranes by using [3H]-KA as radioligand
# Mus musculus [6] = organism: Mus musculus; test: Concentration necessary for 50% inhibition of depolarization induced by 5 uM S-AMPA in mouse cortical wedge preparation; format: functional
# [7] = Ratio of IC50 of KA low-affinity receptor site to KA high-affinity receptor site
# Rattus norvegicus [8] = organism: Rattus norvegicus; test: Concentration that inhibits 50% S-AMPA stimulated (50 uM) [3H]norepinephrine release from rat hippocampal synaptosomes; format: functional; details: Hippocampus
# Mus musculus [9] = organism: Mus musculus; test: Concentration necessary for 50% inhibition of depolarization induced by 5 uM NMDA in mouse cortical wedge preparation; format: functional
# Rattus norvegicus [10] = organism: Rattus norvegicus; test: Concentration giving 50% inhibition of stimulated [3H](+)-MK-801 binding in rat cortical membranes incubated with 10 uM glutamate and 0.1 uM glycine
# [11] = target: Glutamate receptor ionotropic, kainate (Rattus norvegicus) (UniProt P22756+Q01812+P42260+P42264+Q63273); test: Percent inhibition of compound at 100 uM towards high-affinity Ionotropic glutamate receptor kainate of rat cortical membranes by using [3H]KA as radioligand; format: cell membranes; details: Membrane
Ki [1] [µM],Ki [2] [µM],IC50 [4] [µM],Structure (SMILES),also measured
5.5,5.5,–,CCOC(=O)c1nc2c(=O)[nH]c3cc(C(F)(F)F)c(N)cc3n2n1,–
–,0.65,44.4,CCOC(=O)c1nc2c(O)nc3cc([N+](=O)[O-])c(-n4ccc(C=O)c4)cc3n2n1,inhibition [3]: 28%
10.9,12.8,42,CCOC(=O)c1nc2c(=O)[nH]c3cc(C(F)(F)F)c(N4C(=O)C=C(C=O)C4=O)cc3n2n1,–
–,–,–,O=C(O)c1nc2c(O)nc3cc(C(F)(F)F)c(-n4cnnc4)cc3n2n1,"IC50 (Mus musculus [6]): 0.8 µM; Ratio [7]: 0.19; IC50 (Rattus norvegicus [8]): 5.8 µM; IC50 (Mus musculus [9]; Mus musculus, read-out: IC50): 60 µM"
62,9,–,CCOC(=O)c1nc2c(=O)[nH]c3cc(C(F)(F)F)c([N+](=O)[O-])cc3n2n1,–
54,0.35,71,CCOC(=O)c1nc2c(O)nc3cc(C(F)(F)F)c(-n4ccnc4)cc3n2n1,–
0.09,–,–,O=C(O)c1cc(O)c2c(Cl)cc(Cl)cc2n1,–
–,–,–,O=C(O)c1ccn(-c2cc3c(cc2C(F)(F)F)nc(O)c2nc(C(=O)O)nn23)c1,"IC50 (Mus musculus [6]): 1.3 µM; Ratio [7]: 0.48; IC50 (Rattus norvegicus [8]): 7.5 µM; IC50 (Mus musculus [9]; Mus musculus, read-out: IC50): 60 µM"
–,–,–,NS(=O)(=O)c1cccc2c1c([N+](=O)[O-])cc1nc(O)c(O)nc12 [NBQX],IC50 (Rattus norvegicus [8]): 4 µM; IC50 (Mus musculus [9]): Not Active
–,0.068,–,CCOC(=O)c1nc2c(O)nc3cc([N+](=O)[O-])c(-n4ccc(C(=O)O)c4)cc3n2n1,inhibition [3]: 16%
85,6.5,41,CCOC(=O)c1nc2c(=O)[nH]c3cc([N+](=O)[O-])c(NC(C)=O)cc3n2n1,–
–,–,–,CCOC(=O)c1nc2c(O)nc3cc(Cl)c(-n4cnnc4)cc3n2n1,inhibition [3]: 15%
4.4,2.35,43,O=C(O)c1nc2c(=O)[nH]c3cc(C(F)(F)F)c([N+](=O)[O-])cc3n2n1,–
3.7,1.2,69,CCOC(=O)c1nc2c(O)nc3cc([N+](=O)[O-])c(N)cc3n2n1,–
–,0.18,8.2,O=Cc1ccn(-c2cc3c(cc2[N+](=O)[O-])nc(O)c2nc(C(=O)O)nn23)c1,"IC50 [5]: 1.2 µM; inhibition [3]: 43%; IC50 (Mus musculus [6]): 3.1 µM; Ratio [7]: 0.15; IC50 (Rattus norvegicus [8]): 12 µM; IC50 (Mus musculus [9]; Mus musculus, read-out: IC50): 52 µM"
63,1.14,22.2,CC(=O)Nc1cc2c(cc1[N+](=O)[O-])nc(O)c1nc(C(=O)O)nn12,–

Ki [1] [µM],Ki [2] [µM],IC50 [4] [µM],Structure (SMILES),also measured
1.5,1.2,24,Nc1cc2c(cc1C(F)(F)F)nc(O)c1nc(C(=O)O)nn12,–
84,1.4,41,CCOC(=O)c1nc2c(=O)[nH]c3cc([N+](=O)[O-])c(-n4cccc4)cc3n2n1,–
–,–,–,O=Cc1ccn(-c2cc3c(cc2C(F)(F)F)nc(O)c2nc(C(=O)O)nn23)c1,"IC50 (Rattus norvegicus [10]): 11 µM; IC50 (Mus musculus [6]): 1 µM; Ratio [7]: 0.18; IC50 (Rattus norvegicus [8]): 8.1 µM; IC50 (Mus musculus [9]; Mus musculus, read-out: IC50): 50 µM"
–,–,11.3,O=C(O)c1nc2c(=O)[nH]c3cc(Cl)c(-n4cnnc4)cc3n2n1 [TQX-173],IC50 (Rattus norvegicus [10]): 68 µM; IC50 (Rattus norvegicus [8]): 28 µM
–,0.2,92,CCOC(=O)c1nc2c(O)nc3cc(C(F)(F)F)c(-n4cnnc4)cc3n2n1,"inhibition [3]: 42%; IC50 (Mus musculus [6]): 12 µM; IC50 (Mus musculus [9]; Mus musculus, read-out: IC50): > 150 µM"
–,0.35,12.9,CCOC(=O)c1nc2c(O)nc3cc(C(F)(F)F)c(-n4ccc(C(=O)O)c4)cc3n2n1,inhibition [3]: 33%
35,0.037,5.4,O=C(O)c1ccn(-c2cc3c(cc2C(F)(F)F)[nH]c(=O)c2nc(C(=O)O)nn23)c1,IC50 [5]: 2.6 µM
2.6,0.12,5.6,O=Cc1ccn(-c2cc3c(cc2C(F)(F)F)[nH]c(=O)c2nc(C(=O)O)nn23)c1,IC50 [5]: 1 µM
2.7,0.7,20,Nc1cc2c(cc1[N+](=O)[O-])[nH]c(=O)c1nc(C(=O)O)nn12,–
65,0.088,5.1,O=C(O)c1nc2c(=O)[nH]c3cc([N+](=O)[O-])c(-n4cccc4)cc3n2n1,IC50 [5]: 1.7 µM
–,–,–,CCOC(=O)c1nc2c(O)nc3cc(C(F)(F)F)c([N+](=O)[O-])cc3n2n1,inhibition [11]: 24%
8.3,0.28,18.1,O=C(O)c1nc2c(O)nc3cc(C(F)(F)F)c(-n4cccc4)cc3n2n1,"IC50 (Rattus norvegicus [10]): 12.7 µM; IC50 (Mus musculus [6]): 1.5 µM; IC50 (Rattus norvegicus [8]): 11 µM; IC50 (Mus musculus [9]; Mus musculus, read-out: IC50): 80 µM"
–,–,–,O=C(O)c1nc2c(O)nc3cc([N+](=O)[O-])c(-n4cccc4)cc3n2n1,"IC50 (Mus musculus [6]): 1 µM; Ratio [7]: 0.33; IC50 (Rattus norvegicus [8]): 19 µM; IC50 (Mus musculus [9]; Mus musculus, read-out: IC50): 50 µM"
–,–,–,CCOC(=O)c1nc2c(O)nc3cc(C(F)(F)F)c(N)cc3n2n1,inhibition [11]: 45%
71,0.37,31.2,CCOC(=O)c1nc2c(O)nc3cc(C(F)(F)F)c(-n4ccc(C=O)c4)cc3n2n1,IC50 (Mus musculus [6]): 7.8 µM; IC50 (Mus musculus [9]): Not Active
75,2.2,–,CCOC(=O)c1nc2c(O)nc3cc(C(F)(F)F)c(-n4cccc4)cc3n2n1,inhibition [11]: 5%

Structure (SMILES),Ki [1] [µM],Ki [2] [µM],IC50 [4] [µM],also measured
O=C(O)c1nc2c(=O)[nH]c3cc(C(F)(F)F)c(-n4cnnc4)cc3n2n1,3.6,0.095,9.6,IC50 [5]: 1.8 µM
O=C(O)c1nc2c(O)nc3cc(C(F)(F)F)c(-n4ccnc4)cc3n2n1,34,0.12,13,–
O=C(O)c1ccn(-c2cc3c(cc2[N+](=O)[O-])nc(O)c2nc(C(=O)O)nn23)c1,–,0.019,17,inhibition [3]: 7%
